# Measured values published in patent US10869844B2, “Methods for the treatment of depression” (Janssen Pharmaceutica NV, priority 2014, dated 2020).
# Read-outs that look alike come from different tables or passages of the source.
# Columns and labels:
# adult subjects with TRD [1] = assay type: in vivo, human; settings: for Non-responders % / Non-responders N / Responders % (MADRS total score reduction >50% TRD2001, ≥50% TRD2002) / Responders N (MADRS total score reduction >50% TRD2001, ≥50% TRD2002): after first infusion (Day 2 TRD2001, Day 3 or 4 TRD2002)
# Method: (§1) Association between changes in MADRS total score from baseline and the SNP rs6265 after a single dose was evaluated in placebo subjects and active subjects using an ANCOVA model under a dominant model with baseline MADRS total score, and grouped genotype (Val/Val or Met carrier). A statistically significant result was found in active subjects (p=0.02).
# as §1, with “the % responders” for “changes in MADRS total score from baseline”, “a logistic regression” for “an ANCOVA”, “score” for “score,”, “(p=0.03).” for “(p=0.02).”
# Association between the % remitters and the SNP rs6265 after a single dose was evaluated in placebo subjects and as well as in active subjects using a logistic regression model under a dominant model with baseline MADRS total score and grouped genotype (Val/Val or Met carrier).
# adult subjects with TRD [2] = settings: for Non-remitters % / Non-remitters No. / Non-responders % / Non-responders No. / Remitters % (MADRS total score 10) / Remitters No. (MADRS total score 10) / Responders % (MADRS total score reduction >50%) / Responders No. (MADRS total score reduction >50%) / Duration of response, survival function estimate: Failure / Duration of response, survival function estimate: Survival: Met carriers
# [3] = Met carriers (of 6), esketamine subjects per Day 1 randomization
# [4] = DAY 02, randomized to esketamine Day 1
# [5] = DAY 07, randomized to esketamine Day 1
# [6] = DAY 07, randomized to placebo Day 1, esketamine from day 4 onward
# [7] = DAY 17, randomized to esketamine Day 1
# [8] = DAY 17, randomized to placebo Day 1, esketamine from day 4 onward
# [9] = DAY 35, randomized to esketamine Day 1
# [10] = DAY 35, randomized to placebo Day 1, esketamine from day 4 onward
# [11] = Day 0 after Day 17, all responders (Day 17)
# [12] = Day 0 after Day 17, esketamine responders (Day 17) per Day 1 randomization
# [13] = Day 4 after Day 17, all responders (Day 17)
# [14] = Day 4 after Day 17, esketamine responders (Day 17) per Day 1 randomization
compound,measurement,setting,value
"CN[C@]1(c2ccccc2Cl)CCCCC1=O.Cl [Esketamine, (S)-2-(2-chlorophenyl)-2-(methylamino)cyclohexanone hydrochloride]",Non-responders %,adult subjects with TRD [1]; Met carriers,88.9%
same,Non-responders N,adult subjects with TRD [1]; Met carriers,8
same,"Responders % (MADRS total score reduction >50% TRD2001, ≥50% TRD2002)",adult subjects with TRD [1]; Met carriers,11.1%
same,"Responders N (MADRS total score reduction >50% TRD2001, ≥50% TRD2002)",adult subjects with TRD [1]; Met carriers,1
same,Non-responders %,adult subjects with TRD [1]; Val/Val,25.0%
same,Non-responders N,adult subjects with TRD [1]; Val/Val,2
same,"Responders % (MADRS total score reduction >50% TRD2001, ≥50% TRD2002)",adult subjects with TRD [1]; Val/Val,75.0%
same,"Responders N (MADRS total score reduction >50% TRD2001, ≥50% TRD2002)",adult subjects with TRD [1]; Val/Val,6
same,Clinical response associated with Met allele of Val66Met rs6265,"adult subjects with TRD [1]; acute, single dose administration",smaller clinical response
same,"Maintenance of remission, Val/Val vs Met carriers",adult subjects with TRD [2]; Day 35,Remission was maintained longer in Val/Val than in Met carriers
same,"Subjects who remained well, number","adult subjects with TRD [2]; Met carrier group, at Day 21, from 6",3
same,"Day 17 responders who maintained response status up to Day 35, %",adult subjects with TRD [2]; [3],33.3%
same,"Day 17 responders who maintained response status up to Day 35, number",adult subjects with TRD [2]; [3],2
same,Non-remitters %,adult subjects with TRD [2]; [4],88.9%
same,Non-remitters No.,adult subjects with TRD [2]; [4],8
same,Non-responders %,adult subjects with TRD [2]; [4],88.9%
same,Non-responders No.,adult subjects with TRD [2]; [4],8
same,Remitters % (MADRS total score 10),adult subjects with TRD [2]; [4],11.1%
same,Remitters No. (MADRS total score 10),adult subjects with TRD [2]; [4],1
same,Responders % (MADRS total score reduction >50%),adult subjects with TRD [2]; [4],11.1%
same,Responders No. (MADRS total score reduction >50%),adult subjects with TRD [2]; [4],1
same,Non-remitters %,adult subjects with TRD [2]; [5],77.8%
same,Non-remitters No.,adult subjects with TRD [2]; [5],7
same,Non-responders %,adult subjects with TRD [2]; [5],66.7%
same,Non-responders No.,adult subjects with TRD [2]; [5],6
same,Remitters % (MADRS total score 10),adult subjects with TRD [2]; [5],22.2%
same,Remitters No. (MADRS total score 10),adult subjects with TRD [2]; [5],2
same,Responders % (MADRS total score reduction >50%),adult subjects with TRD [2]; [5],33.3%
same,Responders No. (MADRS total score reduction >50%),adult subjects with TRD [2]; [5],3
same,Non-remitters %,adult subjects with TRD [2]; [6],100.0%
same,Non-remitters No.,adult subjects with TRD [2]; [6],1
same,Non-responders No.,adult subjects with TRD [2]; [6],0
same,Remitters No. (MADRS total score 10),adult subjects with TRD [2]; [6],0
same,Responders % (MADRS total score reduction >50%),adult subjects with TRD [2]; [6],100.0%
same,Responders No. (MADRS total score reduction >50%),adult subjects with TRD [2]; [6],1
same,Non-remitters %,adult subjects with TRD [2]; [7],77.8%
same,Non-remitters No.,adult subjects with TRD [2]; [7],7
same,Non-responders %,adult subjects with TRD [2]; [7],33.3%
same,Non-responders No.,adult subjects with TRD [2]; [7],3
same,Remitters % (MADRS total score 10),adult subjects with TRD [2]; [7],22.2%
same,Remitters No. (MADRS total score 10),adult subjects with TRD [2]; [7],2
same,Responders % (MADRS total score reduction >50%),adult subjects with TRD [2]; [7],66.7%
same,Responders No. (MADRS total score reduction >50%),adult subjects with TRD [2]; [7],6
same,Non-remitters No.,adult subjects with TRD [2]; [8],0
same,Non-responders No.,adult subjects with TRD [2]; [8],0
same,Remitters % (MADRS total score 10),adult subjects with TRD [2]; [8],100.0%
same,Remitters No. (MADRS total score 10),adult subjects with TRD [2]; [8],1
same,Responders % (MADRS total score reduction >50%),adult subjects with TRD [2]; [8],100.0%
same,Responders No. (MADRS total score reduction >50%),adult subjects with TRD [2]; [8],1
same,Non-remitters %,adult subjects with TRD [2]; [9],77.8%
same,Non-remitters No.,adult subjects with TRD [2]; [9],7
same,Non-responders %,adult subjects with TRD [2]; [9],55.6%
same,Non-responders No.,adult subjects with TRD [2]; [9],5
same,Remitters % (MADRS total score 10),adult subjects with TRD [2]; [9],22.2%
same,Remitters No. (MADRS total score 10),adult subjects with TRD [2]; [9],2
same,Responders % (MADRS total score reduction >50%),adult subjects with TRD [2]; [9],44.4%
same,Responders No. (MADRS total score reduction >50%),adult subjects with TRD [2]; [9],4
same,Non-remitters No.,adult subjects with TRD [2]; [10],0
same,Non-responders No.,adult subjects with TRD [2]; [10],0
same,Remitters % (MADRS total score 10),adult subjects with TRD [2]; [10],100.0%
same,Remitters No. (MADRS total score 10),adult subjects with TRD [2]; [10],1
same,Responders % (MADRS total score reduction >50%),adult subjects with TRD [2]; [10],100.0%
same,Responders No. (MADRS total score reduction >50%),adult subjects with TRD [2]; [10],1
same,"Duration of response, survival function estimate: Failure",adult subjects with TRD [2]; [11],0
same,"Duration of response, survival function estimate: Survival",adult subjects with TRD [2]; [11],1.0000
same,"Duration of response, survival function estimate: Failure",adult subjects with TRD [2]; [12],0
same,"Duration of response, survival function estimate: Survival",adult subjects with TRD [2]; [12],1.0000
same,"Duration of response, survival function estimate: Failure",adult subjects with TRD [2]; [13],0.4286
same,"Duration of response, survival function estimate: Survival",adult subjects with TRD [2]; [13],0.5714
same,"Duration of response, survival function estimate: Failure",adult subjects with TRD [2]; [14],0.5000
same,"Duration of response, survival function estimate: Survival",adult subjects with TRD [2]; [14],0.5000
